Experimental findings from US20090047221A1 (NIPRI LIMITED, priority 2004, published 2009) are described below.

Common to all, as to format: cell-based
One assay relates to MCF-7. Description: MTT assay (anti-proliferative activity). Particulars: 96 h continual exposure, read-out: IC 50 MCF-7. For orientation: Formazan colour is commonly taken as a measure of viable cells.
The subject of the next assay is MDA-MB-468. As to the kind of experiment: MTT assay (anti-proliferative activity). Particulars: 96 h continual exposure, read-out: IC 50 MDA-MB-468.
For the next assay, the system named is MalMe3M. As to the kind of experiment: MTT assay (anti-proliferative activity). The conditions noted are these: 96 h continual exposure, read-out: IC 50 MalMe3M.
A further assay concerns SkMel28. As to the kind of experiment: MTT assay (anti-proliferative activity). Particulars: 96 h continual exposure, read-out: IC 50 SkMel28.
Assay [1] has as its system breast cancer (MDA-MB-468 and MCF-7 cell lines) and melanoma cell lines (MalMe3, SkMe128). Description: Cell cycle analysis by flow cytometry (propidium iodide); apoptosis as cells in sub G0/G1 (pre G0) peak. The conditions noted are these: following treatment with IC70 concentration of compound. The method, then: Assessment of cell cycle analysis was performed using propidium iodide staining of cells and subsequent analysis on a Beckton Dickinson flow cytometer. […] The following day the medium was removed and replaced with 5 ml medium per flask containing the appropriate drug concentrations to be tested. 40 mg/ml stock drug solutions in DMSO were stores at −20° C. and on the day off drug treatment working solutions of 4 mg/ml were prepared in medium from which the final drug dilutions were prepared. Cells were maintained in an incubator (37° C., 5% CO2) for up to 96 h post treatment. After 24, 48, 72 or 96 h time points the medium from each flask was collected, stored on ice, and the remaining cells in the flasks were trypsinised by aiding 1 ml trypsin-EDTA solution to each flask. Cells were replaced into the incubator for 10 min to allow them to detach from the plastic plate. The cells in each flask were collected by adding the appropriate medium removed from each flask back to the corresponding flask and then placing medium containing both the attached and floating cells into a 15 ml tube. Cells were centrifuged at 4° C. for 5 min at 1500 rpm and the supernatant removed from each tube. The remaining cells were washed twice in ice cold PBS and then fixed in ice cold methanol overnight at −20° C. On the day of analysis of cells each tube was centrifuged at 4° C. for 5 min at 1500 rpm and the methanol removed and the cells washed twice in ice cold PBS. 20 μl propidium iodide solution (1 mg/ml) and 20 μl RNase A (10 mg/ml solution) were added to 1 ml PBS per tube and the cells were incubated for 30 min at 37° C. Cells were analysed on the flow cytometer and cell cycle changes were assessed.

SMILES strings stand for the structures.

`CC(C)CC(NC(=O)c1ccc2c(c1O)C(=O)OC(C)C2)C(=O)OC(C)(C)C` (mixture of isomers) [ALM-55, Leucine Tert-Butyl Ester Amide]: the IC50 came to 43.4 µM in the assay on MCF-7, 12.8 µM in the assay on MDA-MB-468, 22.9 µM in the assay with MalMe3M and 79.2 µM with SkMel28. Moreover, the “% Cells in Pre G0 phase of Cell Cycle” value in assay [1] was found to be 3.4%.
The corresponding values for `CCCCC/C=C\C/C=C\C/C=C\CCCCCOC(=O)c1ccc2c(c1O)C(=O)OC(C)C2` (racemic) [ALM-43, γ-Linolenyl Ester] are 2.3 µM, 4.3 µM, 23.5 µM, 21.3 µM and 11.8%.
For `CCCCCCNC(=O)c1ccc2c(c1O)C(=O)OC(C)C2` (racemic) [ALM-49, Hexyl Amide], in that order: 26.2 µM, 3.3 µM, 65.5 µM, 105 µM and 14.1%.
`CC1(C)Cc2ccc(C(=O)N[C@@H](Cc3ccccc3)C(=O)O)c(O)c2C(=O)O1` [ALM-74, L-Phenyl Alanine Amide of Compound ALM-73]: the IC50 came to 2.21 µM with MCF-7, 1.83 µM with MDA-MB-468, 7.8 µM in the assay with MalMe3M and 11.7 µM in the assay on SkMel28. Further, in assay [1], the “% Cells in Pre G0 phase of Cell Cycle” value was found to be 34.4%.
